We go through two compounds from US8828972B2, “Formulations containing alkylphosphocholines using novel negative charge carriers” (Max-Planck-Gesellschaft zur Foerderung der Wissenschaften …, priority 2004, dated 2014).

The test system of assay [1] is Cushing's and bladder tumours. The experiment in a line: Treatment of cancer in dogs. It counts as in vivo.
In a further assay the test system is Tumour cells. Put plainly: Sensitisation of tumour cells to radiation therapy. It counts as cell-based. As to conditions: tumour cells doped with the substance.

Regarding `CCCCCCCCC=CCCCCCCCCCCCCOP(=O)([O-])OCCC[N+](C)(C)C` [erucylphospho-(N,N,N-trimethyl)-propylammonium], in assay [1], the “treatment of Cushing's and bladder tumours” value was “treated successfully”. In the case of `CCCCCCCCC=CCCCCCCCCCCCCOP(=O)([O-])OCCC[N+](C)(C)C` [erufosin], in the assay on Tumour cells, the “sensitisation to radiation therapy” value is on record as “sensitised to radiation therapy”.
